Data taken from patent publication US8642541B2 (priority 2008, dated 2014).
Entries after “also recorded” stand apart in the source; their conditions may differ.

Tests used:
human Glucagon-R = biological target: T1, human Glucagon-R (Homo sapiens, UniProt P47871); experiment: Glucagon receptor efficacy assay (cAMP, HEK293 cells); assay type: cell-based; conditions: read-out: GLUR EC50
T1 construct: expressed in transfected cells
Experimental: The 5′-end primers additionally encoded a near Kozak consensus sequence to ensure efficient translation.
48 hr after transfection cells were seeded for limited dilution cloning and selected with 1 mg/ml G418 in the culture medium.
On the day of analysis, growth medium was removed and the cells washed once with 200 μl Tyrode buffer. Cells were incubated in 100 μl Tyrode buffer containing increasing concentrations of test peptides, 100 μM IBMX, and 6 mM glucose for 15 min at 37° C. The reaction was stopped by addition of 25 μl 0.5 M HCl and incubated on ice for 60 min. The cAMP content was estimated using the FlashPlate® cAMP kit from Perkin-Elmer.

[1] = Oral glucose tolerance test (OGTT) in db/db mice; assay type: in vivo; conditions: 45 nmol/kg i.p.
Experimental: The animals were kept fasted during the experiment to prevent confounding food intake. Fifteen minutes later an oral dose of glucose (1 g/kg in 5 ml/kg) was given and BG levels were measured at t=30 min, t=60 min, t=120 min and t=240 min.
Difference from baseline (t=0) was calculated for each time point and AUC0-240 min values were determined. Statistical analyses of AUC values by one-way ANOVA and Dunnetts post-hoc analyses were performed with GraphPad Prism version 4. Differences were considered significant at the p<0.05 level.

[2] = system: primary rat adipocyte cultures; assay type: cell-based
Experimental: Adipocytes were isolated from epididymal fat dissected from normal young adult Sprague-Dawley rats. The fat lumps were minced, incubated and shaken (220 rpm) with collagenase (1 mg/ml) in Krebs-Ringer buffer containing 4% BSA (KRB-BSA) for 60 minutes at 37° C. The suspension was filtered through a nylon filter (160 μm pore size) and the filtrate centrifuged at 200×g for 3 min. The subjacent medium beneath the upper floating layer of adipocytes was removed with a Pasteur-pipette. The adipocytes were washed 3 times in KRB-BSA buffer by re-suspension and centrifugation. The adipocytes were re-suspended in KRB-BSA, mixed, incubated in and shaken with test compounds in 96-deep well plates (50,000 cells/well) in a total volume of 1 ml at 37° C. for 60 min. The plates were placed on ice for at least 10 min after incubation followed by centrifugation at 200×g for 3 min. 300 μl of the buffer beneath the adipocyte layer were collected in a 96-deep well plate. This process was repeated two more times and the 3 extracts collected from each culture pooled together. The glycerol formed by the lipolysis in the adipocyte cultures was measured by adding free glycerol reagent (200 μl) to aliquots (25 μl) of adipocyte extract, incubate at room temperature for 15 min, and measure the absorbance at 540 nm.

[3] = 28 day treatment of diet induced obese (DIO) mice: body weight gain; assay type: in vivo
Experimental: Four weeks before drug treatments, C57Bl/6 male mice (7 weeks) (10-12 animals in each group) were put on high fat diet (HFD) and their day-night cycle reversed with lights On/Off at 2000/0800 hour. Experimental animals were conditioned to treatment by daily injections (s.c.) of 0.1 ml vehicle and acclimatized to handling by weighing them twice a week one week before start of drug administrations. The day before start of experiment, mice were stratified into groups with similar body weight (BW) and the next day groups of stratified mice were treated (b.i.d.; s.c.) with ZP2653 (SEQ ID NO: 4) (500 nmol/kg)), or vehicle (PBS, pH 7.4, 2.5 μl/g BW). A non-obese control group maintained on regular chow was treated with vehicle in the same treatment regime as the DIO groups. Body weights were recorded daily and used to administer the body weight-corrected doses of peptide throughout the study. Animals were fasted overnight before sacrifice. An eye blood sample (0.6 ml EDTA) was obtained the following morning immediately before cervical dislocation. Blood plasma samples were stored at −80° C. until analyzed for cholesterol, HDL and LDL using commercially available kits. Body weight gains throughout the treatment period were calculated for each animal by subtracting its weight at the initiation of treatment. […]

[4] = 28 day treatment of DIO mice: plasma cholesterol, HDL and LDL; assay type: in vivo; conditions: 4 weeks b.i.d., compared to vehicle
Experimental: Four weeks before drug treatments, C57Bl/6 male mice (7 weeks) (10-12 animals in each group) were put on high fat diet (HFD) and their day-night cycle reversed with lights On/Off at 2000/0800 hour. Experimental animals were conditioned to treatment by daily injections (s.c.) of 0.1 ml vehicle and acclimatized to handling by weighing them twice a week one week before start of drug administrations. […] A non-obese control group maintained on regular chow was treated with vehicle in the same treatment regime as the DIO groups. Body weights were recorded daily and used to administer the body weight-corrected doses of peptide throughout the study. Animals were fasted overnight before sacrifice. An eye blood sample (0.6 ml EDTA) was obtained the following morning immediately before cervical dislocation. Blood plasma samples were stored at −80° C. until analyzed for cholesterol, HDL and LDL using commercially available kits. Body weight gains throughout the treatment period were calculated for each animal by subtracting its weight at the initiation of treatment.
Statistical analyses of data on body weight gain and cholesterols among treatments by 2-way ANOVA with repeated measures and Bonferoni post-hoc analyses were performed with GraphPad Prism version 4. Differences were considered significant at the p<0.05 level.

T1 sequence (P47871 26-477): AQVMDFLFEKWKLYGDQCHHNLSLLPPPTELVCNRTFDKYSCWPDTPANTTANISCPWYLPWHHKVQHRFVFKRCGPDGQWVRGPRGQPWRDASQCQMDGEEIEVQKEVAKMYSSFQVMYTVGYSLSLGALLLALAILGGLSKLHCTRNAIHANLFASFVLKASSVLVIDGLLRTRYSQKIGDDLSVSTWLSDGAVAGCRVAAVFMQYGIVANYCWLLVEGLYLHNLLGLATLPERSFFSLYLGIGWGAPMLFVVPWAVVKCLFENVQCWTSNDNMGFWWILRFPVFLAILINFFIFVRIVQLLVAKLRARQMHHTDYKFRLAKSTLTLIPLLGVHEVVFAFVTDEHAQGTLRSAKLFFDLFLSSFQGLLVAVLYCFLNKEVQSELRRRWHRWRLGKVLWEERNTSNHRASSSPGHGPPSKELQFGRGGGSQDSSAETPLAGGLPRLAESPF

EC50 (human Glucagon-R) [nM] | EC50 [2] [nM] | Substance | improvement of glucose tolerance (decrease in Area Under the curve (AUC)) ([1]; AUC0-240 min) [%] | effect on oral glucose tolerance ([1]; OGTT) | lipolysis potency relative to OXM ([2]; primary adipocyte cultures) [times] | lipolysis potency relative to glucagon ([2]; primary adipocyte cultures) | effect on body weight gain ([3]; DIO mice on HFD, 500 nmol/kg b.i.d. s.c., 28 days, versus vehicle) | effect on fat deposition ([3]; DIO mice, 4 weeks treatment) | effect on HDL/LDL ratios [4] | effect on concentrations of LDL cholesterol [4]
0.1 | – | H-HSQGTFTSDYSLYLDSRRAKDFIEWLERA-NH2 [Compound L006-0050] | – | – | – | – | – | – | – | –
– | 3.6 | H-HSQGTFTSDYSLYLDSRRAKDFIEWLESA-NH2 [ZP2653] | 39.5 | significantly improved glucose tolerance | 50 | equipotent to glucagon | decreased body weight gain to a level similar to that observed with chow feeding; also recorded: decreased body weight gain significantly | significantly decreased fat deposition | significant | significant effect
